Values quoted from earlier work as cited in US10570353B2, “Cleaning compositions” (Ascent IP Holdings, LLC, priority 2009, dated 2020).

Key:
[1] = identified from data sources
[2] = trace constituents of Trilon M Liquid
[3] = published toxicity data
[4] = supplier's nominal lipase activity

Molecule: Cn1sccc1=O [2-Methyl-4-isothiazolin-3-one]
- skin sensitizer listing [1]: skin sensitizers

Molecule: Cn1sc(Cl)cc1=O [5-Chloro-2-Methyl-4-isothiazolin-3-one]
- skin sensitizer listing [1]: skin sensitizers

Molecule: C=O [formaldehyde]
- carcinogenicity listing [2]: suspected carcinogens

Molecule: OO [hydrogen peroxide]
- skin sensitizer listing [1]: skin sensitizers
- mutagenicity [3]: potential risk for mutagenicity

Molecule: [Na+].[OH-] [sodium hydroxide]
- skin sensitizer listing [1]: skin sensitizers

Molecule: O=C([O-])CN(CC(=O)[O-])CC(=O)[O-].[Na+].[Na+].[Na+] [trisodium nitrilotriacetate]
- carcinogenicity listing [2]: suspected carcinogens

Molecule: cocamidopropyl betaine
- skin sensitizer listing [1]: skin sensitizers

B1: LIPOLASE® 100L: lipase derived from Thermomyces lanuginosus, from Novo-Nordisk A/S, liquid solution (protein, UniProt O59952 23-291, looked up)
Lipase: EVSQDLFNQFNLFAQYSAAAYCGKNNDAPAGTNITCTGNACPEVEKADATFLYSFEDSGVGDVTGFLALDNTNKLIVLSFRGSRSIENWIGNLNFDLKEINDICSGCRGHDGFTSSWRSVADTLRQKVEDAVREHPDYRVVFTGHSLGGALATVAGADLRGNGYDIDVFSYGAPRVGNRAFAEFLTVQTGGTLYRITHTNDIVPRLPPREFGYSHSSPEYWIKSGTLVPVTRNDIVKIEGIDATGGNNQPNIPDIPAHLWYFGLIGTCL
modifications: liquid commercial formulation
notes: lipase derived from Thermomyces lanuginosus, from Novo-Nordisk A/S, liquid solution
- nominal activity [4]: 100 kLU/g

B2: LIPOLASE® 100T: lipase derived from Thermomyces lanuginosus, from Novo-Nordisk A/S, granular solid (protein, UniProt O59952 23-291, looked up)
Lipase: B1 Lipase
modifications: granular commercial formulation
notes: lipase derived from Thermomyces lanuginosus, from Novo-Nordisk A/S, granular solid
- nominal activity [4]: 100 kLU/g
